Measured values reported in patent EP0294746A1, “Bicyclic nitro compounds” (L. GIVAUDAN & CIE Société Anonyme, priority 1987, dated 1988).

Legend:
[1] = Odour threshold and odour value determination; details: definition per Huber, Seifen-Oele-Fette-Wachse 110 (1984) 448-451
Description: Die Verbindungen der Formel I eignen sich aufgrund ihrer natürlichen Geruchsnoten insbesondere zur Modifizierung von bekannten Kompositionen. Hervorgehoben werden soll insbesondere ihre ausserordentliche Geruchsstärke: Der Geruchsschwellenwert beträgt 0,29 bzw. 0,57 ng/l, der Geruchswert 2983 bzw. 2139. Bezüglich Definition von Geruchswert und Geruchsschwellenwert siehe z.B. Ulrich A. Huber, Seifen - -Oele - Fette - Wachse 110, Nr. 15 (1984) 448-451.

[2] = Odour description (olfactory evaluation); details: odour note in words

| SMILES | Geruchsschwellenwert [1] | Geruch [2] |
| --- | --- | --- |
| CCc1cc2c(cc1[N+](=O)[O-])C(C)(C)CCC2(C)C [Beispiel 1, 6-Nitro-7-äthyl-1,1,4,4-tetramethyl-1,2,3,4-tetrahydronaphthalin] | 0,57 ng/l | Moschus-artig, süss, pudrig |
| CCc1cc2c(cc1[N+](=O)[O-])C(C)(C)C(C)C2(C)C (stereo not shown) [Beispiel 2, 5-Nitro-6-äthyl-1,1,2,3,3-pentamethylindan] | 0,29 ng/l | moschus-artig |
